Results taken from patent EP4813403A1, “USE OF GLP-1R/GIPR DOUBLE-TARGET AGONIST IN PREPARING ANIMAL DRUG” (Hangzhou Zhongmeihuadong Pharmaceutical Co., Ltd., priority 2023, dated 2025).

Legend:
rabbit GLP-1R = target: T1, rabbit GLP-1R (Oryctolagus cuniculus, UniProt G1SGD4); test: Agonistic activity on GLP-1R of different species (LANCE Ultra cAMP assay): rabbit; type: cell-based; conditions: ratio of EC50 value of other species to human EC50 value
T1 construct: expressed in transfected cells
T1 sequence (G1SGD4 24-462): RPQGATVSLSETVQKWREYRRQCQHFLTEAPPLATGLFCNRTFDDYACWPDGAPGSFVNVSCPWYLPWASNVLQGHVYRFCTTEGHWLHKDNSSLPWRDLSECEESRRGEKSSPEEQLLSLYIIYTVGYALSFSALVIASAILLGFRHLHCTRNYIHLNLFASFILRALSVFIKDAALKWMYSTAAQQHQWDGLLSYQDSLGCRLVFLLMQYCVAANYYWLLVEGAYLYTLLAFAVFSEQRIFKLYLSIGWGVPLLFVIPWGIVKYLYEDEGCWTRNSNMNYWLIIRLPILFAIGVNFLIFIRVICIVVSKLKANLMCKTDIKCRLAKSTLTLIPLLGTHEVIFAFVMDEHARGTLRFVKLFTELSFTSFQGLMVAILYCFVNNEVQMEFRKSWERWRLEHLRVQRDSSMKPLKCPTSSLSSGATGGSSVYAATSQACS
Description: The in vitro agonistic activity of the compound of the present invention on GLP-1R was measured in cells stably expressing human, dog, mouse, rat, rabbit, and monkey GLP-1R (human GLP-1R-HEK, dog GLP-1R-HEK, mouse GLP-1R-HEK, rat GLP-1R- in HEK, rabbit GLP-1R-CHO, monkey GLP-1R-HEK cells). Human GLP-1R-HEK, dog GLP-1R-HEK, mouse GLP-1R-HEK, rat GLP-1R-HEK, rabbit GLP-1R-CHO, and monkey GLP-1R-HEK cells were resuspended in 1×Casein Stimulation Buffer (HBSS, 5 mM HEPES, 0.5 mM IBMX, 0.1% casein, pH7.4), and seeded into a 384-well cell culture plate at 9 µL/well (cell numbers being 1000, 1000, 1000, 1500, 1000, 1000 cells/well, respectively). 1 µL of 1×Casein Stimulation Buffer containing 10× compound was added to the above-mentioned 384-well cell culture plate. The plate was incubated at 37 °C for 30 minutes. After the incubation was completed, 5 µL of Eu-cAMP working solution and 5 µL of Ulight^TM-cAMP working solution were added sequentially, centrifuged and then incubated at room temperature for 1 hour. The readings at 665 nm and 620 nm were determined with a 330 nm excitation light on a microplate reader. The 665 nm/620 nm reading ratio was calculated. […] GraphPad was used to perform nonlinear regression according to the response percentage and the concentration of the compound added to obtain the EC50 value for each compound.

dog GIPR = target: T2, dog GIPR (Canis lupus familiaris, UniProt A0A8I3MPG1); test: Agonistic activity on GIPR of different species (LANCE Ultra cAMP assay): dog; type: cell-based; conditions: ratio of EC50 value of other species to human EC50 value
T2 construct: expressed in transfected cells; host or cells: CHO-K1 (transient)
T2 sequence (A0A8I3MPG1 24-449): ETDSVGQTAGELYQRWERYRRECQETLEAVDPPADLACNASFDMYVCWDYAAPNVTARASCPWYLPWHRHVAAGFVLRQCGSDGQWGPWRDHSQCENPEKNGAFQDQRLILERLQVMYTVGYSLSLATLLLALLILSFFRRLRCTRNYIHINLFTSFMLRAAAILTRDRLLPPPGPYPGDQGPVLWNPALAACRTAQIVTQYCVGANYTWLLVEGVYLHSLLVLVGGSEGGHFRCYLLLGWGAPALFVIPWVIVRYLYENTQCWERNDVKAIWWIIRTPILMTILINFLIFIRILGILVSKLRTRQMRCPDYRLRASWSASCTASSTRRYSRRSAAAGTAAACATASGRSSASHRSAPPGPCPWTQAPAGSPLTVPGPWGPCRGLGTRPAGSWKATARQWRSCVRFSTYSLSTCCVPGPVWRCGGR
Description: CHO-K1 cells were seeded in a 6-well plate at 0.6×10^6 cells/well and incubated overnight in an incubator at a temperature of 37 °C and a carbon dioxide concentration of 5%. The next day, CHO-K1 cell media were replaced. Then two tubes A and B were prepared for each plasmid. 100 µL Opti-MEM was added to tube A, then 4 µL Lipofectamine™ 3000 was added and mixed uniformly. 100 µL Opti-MEM was firstly added to tube B, then 2 µg of one of the plasmids (human GIPR-pcDNA5 (+) plasmid, dog GIPR-pcDNA5 (+) plasmid, mouse GIPR-pcDNA5 (+) plasmid, rat GIPR-pcDNA5 (+) plasmid, rabbit GIPR-pcDNA5 (+) plasmid, monkey GIPR-pcDNA5 (+) plasmid) was added and mixed uniformly, and 4 µL P3000™ was added to tube B and mixed uniformly (the ratio of plasmid to transfection reagent was 1 µg: 2 µL). […]
18-20 hours after transfection, human GIPR-CHO, dog GIPR-CHO, mouse GIPR-CHO, rat GIPR-CHO, rabbit GIPR-CHO, and monkey GIPR-CHO cells were resuspended in 1×Casein Stimulation Buffer (HBSS, 5 mM HEPES, 0.5 mM IBMX, 0.1% casein, pH7.4), and seeded into a 384-well cell culture plate at 9 µL/well (cell numbers being 1000, 2000, 2000, 2000, 2000, 2000 cells/well, respectively). […] The readings at 665 nm and 620 nm were determined with a 330 nm excitation light on a microplate reader. The 665 nm/620 nm reading ratio was calculated. […]

CC[C@H](C)[C@H](NC(=O)C(C)(C)NC(=O)[C@H](Cc1ccc(O)cc1)NC(=O)[C@H](CC(=O)O)NC(=O)[C@H](CO)NC(=O)[C@@H](NC(=O)C(C)(Cc1ccccc1)NC(=O)[C@@H](NC(=O)CNC(=O)[C@H](CCC(=O)O)NC(=O)C(C)(C)NC(=O)[C@@H](N)Cc1ccc(O)cc1)[C@@H](C)O)[C@@H](C)O)C(=O)NC(C)(C)C(=O)N[C@@H](CC(C)C)C(=O)N[C@@H](CC(=O)O)C(=O)N[C@@H](CCCCN)C(=O)N[C@@H](CCC(N)=O)C(=O)N[C@@H](C)C(=O)N[C@@H](CCC(N)=O)C(=O)N[C@@H](C)C(=O)N[C@@H](CCC(=O)O)C(=O)N[C@@H](Cc1ccccc1)C(=O)N[C@H](C(=O)N[C@@H](CCCCNC(=O)COCCOCCNC(=O)COCCOCCNC(=O)COCCOCCNC(=O)CC[C@H](NC(=O)CCCCCCCCCCCCCCCCCCCCC(=O)O)C(=O)O)C(=O)N[C@@H](Cc1c[nH]c2ccccc12)C(=O)N[C@@H](CC(C)C)C(=O)N[C@@H](CC(C)C)C(=O)N[C@@H](CCCCN)C(=O)NCC(=O)NCC(=O)N1CCC[C@H]1C(=O)N[C@@H](CO)C(=O)N[C@@H](CO)C(=O)NCC(=O)N[C@@H](C)C(=O)N1CCC[C@H]1C(=O)N1CCC[C@H]1C(=O)N1CCC[C@H]1C(=O)N[C@@H](CO)C(=O)N[C@@H](CCCCN)C(N)=O)C(C)C (some centres unmarked) [Compound P016]
GLP-1R EC50 ratio (rabbit GLP-1R): 1.05
GIPR EC50 ratio (dog GIPR): 2.88
